# Source: US9890185B2, “Urea derivatives useful as kinase inhibitors” (Respivert Limited, priority 2013, dated 2018)
# Where two headings read alike, the source gives them in different places.
# Experiments:
# [1] = tested on: PBMCs; assay: LPS-induced IL-8 release in PBMC cells (assay b); assay type: cell-based, human; conditions: LPS-stimulated PBMCs, read-out: IC50 Values for Inhibition of Cytokine Release, PBMCs IL-8
# Outline: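 Human PBMCs from healthy donors, isolated by density gradient, were pretreated with compound for 2 h and then stimulated with 1 ng/mL LPS (E. coli 0111:B4) for 24 h at 37° C, 5% CO2. Supernatant IL-8 and TNFα were measured by sandwich ELISA, and IC50 was taken from the dose-response curve.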
# [2] = biological target: GSK 3α (Homo sapiens (Human), UniProt P49840); assay: GSK 3α enzyme inhibition (FRET, Z-LYTE, Method 2); assay type: biochemical; conditions: read-out: IC50 Values for Enzyme Inhibition, GSK3α
# Outline: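 Phosphorylation of a dual-labelled synthetic peptide by human GSK3α is read as a coumarin/fluorescein ratio after protease development. Compound stocks run 4 to 0.004 μg/mL, and ATP stock is 40 μM.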
# [3] = tested on: d-U937 cells; assay: Accumulation of β catenin in d-U937 cells (assay m); assay type: cell-based, human; conditions: percentage relative to Reference Compound at 1 μg/mL
# Method: U937 cells, a human monocytic cell line, are differentiated into macrophage-type cells by incubation with PMA; (100 ng/mL) for between 48 to 72 hr. The cells are then incubated with either final concentrations of test compound or vehicle for 18 hr. The induction of β-catenin by the test compounds is stopped by replacing the media with 4% formaldehyde solution. Endogenous peroxide activity is neutralised by incubating with quenching buffer (100 μL, 0.1% sodium azide, 1% H2O2 in PBS with 0.05% Tween-20) for 20 min. The cells are washed with washing buffer (200 μL; PBS containing 0.05% Tween-20) and incubated with blocking solution (200 μL; 5% milk in PBS) for 1 hr, re-washed with washing buffer (200 μL) and then incubated overnight with anti-β-catenin antibody solution (50 μL) in 1% BSA/PBS (BD, Oxford, UK).
# After washing with washing buffer (3×200 μL; PBS containing 0.05% Tween-20), cells are incubated with an HRP-conjugated secondary antibody solution (100 μL) in 1% BSA/PBS (Dako, Cambridge, UK) and the resultant signal is determined colourimetrically (OD: 450 nm with a reference wavelength of 655 nm) using TMB substrate (50 μL; R&D Systems, Abingdon, UK). This reaction is stopped by addition of 1N H2SO4 solution (50 μL). Cells are then washed with washing buffer and 2% crystal violet solution (50 μL) is applied for 30 min. After washing with washing buffer (3×200 μL), 1% SDS (100 μL) is added to each well and the plates are shaken lightly for 1 hr prior to measuring the absorbance at 595 nm (Varioskan® Flash, Thermo-Fisher Scientific).
# The measured OD450-655 readings are corrected for cell number by dividing the OD450-655 by the OD595 readings.
# Sequence of GSK 3α (P49840 whole entry): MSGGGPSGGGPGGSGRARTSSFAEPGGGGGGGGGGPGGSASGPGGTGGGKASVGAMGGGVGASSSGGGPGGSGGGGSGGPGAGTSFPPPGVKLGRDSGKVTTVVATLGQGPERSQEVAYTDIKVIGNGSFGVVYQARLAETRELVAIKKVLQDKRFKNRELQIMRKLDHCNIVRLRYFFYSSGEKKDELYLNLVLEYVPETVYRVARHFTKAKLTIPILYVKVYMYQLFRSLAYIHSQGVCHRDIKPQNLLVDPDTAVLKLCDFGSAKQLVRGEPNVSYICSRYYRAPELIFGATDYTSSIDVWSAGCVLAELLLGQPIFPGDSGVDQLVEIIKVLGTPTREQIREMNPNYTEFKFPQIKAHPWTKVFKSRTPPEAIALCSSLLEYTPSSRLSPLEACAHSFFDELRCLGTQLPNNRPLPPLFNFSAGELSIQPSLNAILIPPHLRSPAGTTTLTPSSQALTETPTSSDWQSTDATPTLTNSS
IC50 [2] [nM],Compound,IC50 [1] [nM],% β-catenin induction ([3]; test compound 1 μg/mL) [%],% β-catenin induction ([3]; test compound 5 μg/mL) [%],% β-catenin induction ([3]; test compound 10 μg/mL) [%],"IC50 ([1]; Homo sapiens, PBMC) [nM]"
789,"COCCOCCOCCNC(=O)c1cc(Nc2cc(Oc3ccc(NC(=O)Nc4cc(C(C)(C)C)cc(C[S+](C)[O-])c4OC)c4ccccc34)ccn2)cc(OC)c1 (stereo not drawn) [38(z), 3-((4-((4-(3-(5-(tert-Butyl)-2-methoxy-3-((methylsulfinyl)methyl)phenyl)ureido)naphthalen-1-yl)oxy)pyridin-2-yl)amino)-5-methoxy-N-(2-(2-(2-methoxyethoxy)ethoxy)ethyl)benzamide]",–,–,–,–,0.6
480,"COc1cc(Nc2cc(Oc3ccc(NC(=O)Nc4cc(C(C)(C)C)cc(P(C)(C)=O)c4OC)c4ccccc34)ccn2)ccc1C(=O)N1CCN(C)CC1 [79(a), 1-(5-tert-Butyl-3-dimethylphosphoryl-2-methoxy-phenyl)-3-[4-[[2-[3-methoxy-4-(4-methylpiperazine-1-carbonyl)anilino]-4-pyridyl]oxy]-1-naphthyl]urea]",–,–,–,–,5.1
1880,"COc1cc(Nc2cc(Oc3ccc(NC(=O)Nc4cc(C(C)(C)C)cc(P(C)(C)=O)c4OC)c4ccccc34)ccn2)ccc1C(=O)NC1CCN(C)CC1 [79(b), 4-[[4-[[4-[(5-tert-Butyl-3-dimethylphosphoryl-2-methoxy-phenyl)carbamoylamino]-1-naphthyl]oxy]-2-pyridyl]amino]-2-methoxy-N-(1-methyl-4-piperidyl)benzamide]",–,–,–,–,7.4
1770,"COc1cc(Nc2cc(Oc3ccc(NC(=O)Nc4cc(C(C)(C)C)cc(P(C)(C)=O)c4OC)c4ccccc34)ccn2)ccc1C(=O)NCCN(C)C [79(c), 4-[[4-[[4-[(5-tert-Butyl-3-dimethylphosphoryl-2-methoxy-phenyl)carbamoylamino]-1-naphthyl]oxy]-2-pyridyl]amino]-N-(2-dimethylaminoethyl)-2-methoxy-benzamide]",–,–,–,–,7
957,"CNC(=O)c1cc(Nc2cc(Oc3ccc(NC(=O)Nc4cc(C(C)(C)C)cc(P(C)(C)=O)c4OC)c4ccccc34)ccn2)cc(OCCN2CCOCC2)c1 [79(f), 3-[[4-[[4-[(5-tert-Butyl-3-dimethylphosphoryl-2-methoxy-phenyl)carbamoylamino]-1-naphthyl]oxy]-2-pyridyl]amino]-N-methyl-5-(2-morpholinoethoxy)benzamide]",–,–,–,–,3.9
4100,"COCCOCCOCCOc1cc(Nc2cc(Oc3ccc(NC(=O)Nc4cc(C(C)(C)C)cc(P(C)(C)=O)c4OC)c4ccccc34)ncn2)cc(OC)c1 [Example 4, 1-(5-(tert-Butyl)-3-(dimethylphosphoryl)-2-methoxyphenyl)-3-(4-((6-((3-methoxy-5-(2-(2-(2-methoxyethoxy)ethoxy)ethoxy)phenyl)amino)pyrimidin-4-yl)oxy)naphthalen-1-yl)urea]",–,–,–,–,5.6
282,"COc1cc(Nc2nccc(Oc3ccc(NC(=O)Nc4cc(C(C)(C)C)cc(P(C)(C)=O)c4OC)c4ccccc34)n2)cc(P(C)(C)=O)c1 [Example 21, 1-(5-(tert-Butyl)-3-(dimethylphosphoryl)-2-methoxyphenyl)-3-(4-((2-((3-(dimethylphosphoryl)-5-methoxyphenyl)amino)pyrimidin-4-yl)oxy)naphthalen-1-yl)urea]",–,–,–,–,3.2
280,"COc1c(NC(=O)Nc2ccc(Oc3ccnc(Nc4cccc(N=S(C)(C)=O)c4)n3)c3ccccc23)cc(C(C)(C)C)cc1P(C)(C)=O [Example 22, 1-(5-(tert-Butyl)-3-(dimethylphosphoryl)-2-methoxyphenyl)-3-(4-((2-((3-((dimethyl(oxo)-lambda-6-sulfanylidene)amino)phenyl)amino)pyrimidin-4-yl)oxy)naphthalen-1-yl)urea]",–,–,–,–,3.3
7940,"COc1c(NC(=O)Nc2ccc(Oc3ccnc(Nc4ccccc4)c3)c3ccccc23)cc(C(C)(C)C)cc1C(=O)NCCN1CCNCC1 [Example 23, 5-(tert-Butyl)-2-methoxy-3-(3-(4-((2-(phenylamino)pyridin-4-yl)oxy)naphthalen-1-yl)ureido)-N-(2-(piperazin-1-yl)ethyl)benzamide]",–,–,–,–,6.8
249,"COc1c(NC(=O)Nc2ccc(Oc3ccnc(NC(=O)CN4C[C@@H](C)O[C@@H](C)C4)c3)c3ccccc23)cc(C(C)(C)C)cc1P(C)(C)=O [Example 26, N-(4-((4-(3-(5-(tert-Butyl)-3-(dimethylphosphoryl)-2-methoxyphenyl)ureido)naphthalen-1-yl)oxy)pyridin-2-yl)-2-(cis-2,6-dimethylmorpholino)acetamide]",–,–,–,–,2.2
186,"COc1c(NC(=O)Nc2ccc(Oc3ccnc(NC4CCOCC4)n3)c3ccccc23)cc(C(C)(C)C)cc1P(C)(C)=O [Example 31, 1-(5-(tert-Butyl)-3-(dimethylphosphoryl)-2-methoxyphenyl)-3-(4-((2-((tetrahydro-2H-pyran-4-yl)amino)pyrimidin-4-yl)oxy)naphthalen-1-yl)urea]",–,–,–,–,2.6
> 12600,"CC(C)(C)c1cc(NC(=O)Nc2ccc(Oc3ccnc(Nc4ccccc4)c3)c3ccccc23)c(O)c(P(C)(C)=O)c1 [Example 39, 1-(5-(tert-Butyl)-3-(dimethylphosphoryl)-2-hydroxyphenyl)-3-(4-((2-(phenylamino)pyridin-4-yl)oxy)naphthalen-1-yl)urea]",–,–,–,–,31.4
1230,"COc1c(NC(=O)Nc2ccc(Oc3ccnc(Nc4cc(C)c5[nH]ncc5c4)n3)c3ccccc23)cc(C(C)(C)C)cc1[S+](C)[O-] (stereo not drawn) [Example 74, 1-(5-(tert-Butyl)-2-methoxy-3-(methylsulfinyl)phenyl)-3-(4-((2-((7-methyl-1H-indazol-5-yl)amino)pyrimidin-4-yl)oxy)naphthalen-1-yl)urea]",–,–,–,–,1.6
70,"COc1cc(Nc2cc(Oc3ccc(NC(=O)Nc4cc(C(C)(C)C)cc(P(C)(C)=O)c4OC)c4ccccc34)ccn2)ccc1C(=O)O [Example 76, 4-((4-((4-(3-(5-(tert-Butyl)-3-(dimethylphosphoryl)-2-methoxyphenyl)ureido)naphthalen-1-yl)oxy)pyridin-2-yl)amino)-2-methoxybenzoic acid]",–,–,–,–,41.5
773,"CNC(=O)c1cc(CN2CCN(C)CC2)cc(Nc2cc(Oc3ccc(NC(=O)Nc4cc(C(C)(C)C)cc(P(C)(C)=O)c4OC)c4ccccc34)ccn2)c1 [Example 78, 3-((4-((4-(3-(5-(tert-Butyl)-3-(dimethylphosphoryl)-2-methoxyphenyl)ureido)naphthalen-1-yl)oxy)pyridin-2-yl)amino)-N-methyl-5-((4-methylpiperazin-1-yl)methyl)benzamide]",–,–,–,–,23
–,"COCC(=O)Nc1cc(Oc2ccc(NC(=O)Nc3cc(C(C)(C)C)nn3-c3ccc(C)cc3)c3ccccc23)ccn1 [Reference Compound, N-(4-(4-(3-(3-tert-butyl-1-p-tolyl-1H-pyrazol-5-yl)ureido)naphthalen-1-yloxy)pyridin-2-yl)-2-methoxyacetamide, reference compound]",–,100,–,–,–

Compound,IC50 [2] [nM],IC50 [1] [nM],% β-catenin induction ([3]; test compound 1 μg/mL) [%],% β-catenin induction ([3]; test compound 5 μg/mL) [%],% β-catenin induction ([3]; test compound 10 μg/mL) [%],"IC50 ([1]; Homo sapiens, PBMC) [nM]"
"COc1cccc(Nc2nccc(Oc3ccc(NC(=O)Nc4cc(C(C)(C)C)cc(P(C)(C)=O)c4OC)c4ccccc34)n2)c1 [15(g), 1-(5-(tert-butyl)-3-(dimethylphosphoryl)-2-methoxyphenyl)-3-(4-((2-((3-methoxy-phenyl)amino)pyrimidin-4-yl)oxy)naphthalen-1-yl)urea]",757,1.9,15.0,94.0,94.0,–
